Measured values taken from paper PMC5011342, “A high throughput drug screening assay to identify compounds that promote oligodendrocyte differentiation using acutely dissociated and purified oligodendrocyte precursor cells” (BMC Research Notes, 2016).
Like-named read-outs stand apart in the source and are kept apart here.

What was measured:
[1] = system: acutely dissociated and purified rat OPCs; assay: Acute OL differentiation assay (MBP expression/cell, immunofluorescent image quantification); type: cell-based; conditions: for activation at 0.4 µM / activation at 2 µM / activation at 0.08 µM / activation at 10 µM: sheet "All OLga data"; for activation at 0.08 µM: 0.08 uM test compound, read-out: OL differentiation, 0.08 uM (% Quet)
In short: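 Oligodendrocyte precursor cells were enriched from P6-P7 Sprague–Dawley rat brains by immunopanning (RAN-2 and GalC depletion, O4 selection), plated at 5000 cells/well in serum-free, mitogen-free differentiation media on PDL/laminin 96-well view plates, centrifuged at 200×g, and pre-incubated 1–2 h before test compounds were added in quadruplicate. On DIV4, cells were fixed, stained for MBP and DAPI, imaged automatically, and MBP expression per cell was quantified.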

expanded OPCs = assay: cells; conditions: for viability at 0.1 µM / viability at 1 µM / viability at 10 µM: Rattus norvegicus, 72 h; for 0.1 µM (% DMSO) / 1 µM (% DMSO) / 10 µM (% DMSO): alamarBlue viability of expanded OPCs, relative to DMSO control; for 0.1 µM (% DMSO): compound at 0.1 µM; for 1 µM (% DMSO): compound at 1 µM; for 10 µM (% DMSO): compound at 10 µM
In short: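 Expanded OPCs seeded at 10,000 cells/well in differentiation media, then exposed to NCC library compounds at 10, 1 and 0.1 µM (quadruplicate, 0.1% DMSO) for three days. Viability read as alamarBlue fluorescence (560/590 nm) after 4 h at 37 °C; tunicamycin 5 ng/ml served as toxicity control.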

[2] = Rattus norvegicus, test compound at 2 uM, NCC library screen, relative to quetiapine, read-out: 2 uM (% Quet)
[3] = read-out: 0.1 µM (% DMSO), alamarBlue viability, NCC library compound at 0.1 µM, sheet "All Tox data"
[4] = read-out: 1 µM (% DMSO), alamarBlue viability, NCC library compound at 1 µM, sheet "All Tox data"
[5] = read-out: 10 µM (% DMSO), alamarBlue viability, NCC library compound at 10 µM, sheet "All Tox data"
[6] = Rattus norvegicus, relative to quetiapine
[7] = Rattus norvegicus, 0.4 uM test compound, relative to quetiapine, read-out: OL differentiation, 0.4 uM (% Quet)
[8] = read-out: 0.1 µM (% DMSO), alamarBlue viability of expanded OPCs, compound at 0.1 µM, sheet All Tox data
[9] = read-out: 1 µM (% DMSO), alamarBlue viability of expanded OPCs, compound at 1 µM, sheet All Tox data
[10] = read-out: 10 µM (% DMSO), alamarBlue viability of expanded OPCs, compound at 10 µM, sheet All Tox data
[11] = Rattus norvegicus, 2 uM test compound, relative to quetiapine, read-out: OL differentiation, 2 uM (% Quet)
[12] = Rattus norvegicus, 10 uM test compound, relative to quetiapine, read-out: OL differentiation, 10 uM (% Quet)
[13] = Rattus norvegicus, test compound at 2 uM, MBP expression relative to quetiapine, NCC library screen, read-out: 2 uM (% Quet)
[14] = Rattus norvegicus, test compound at 10 uM, MBP expression relative to quetiapine, NCC library screen, read-out: 10 uM (% Quet)
[15] = Rattus norvegicus, test compound at 10 uM, NCC library screen, relative to quetiapine, read-out: 10 uM (% Quet)

SMILES	activation at 2 µM [1, 2] [%]	viability at 0.1 µM (expanded OPCs; [3]) [%]	viability at 1 µM (expanded OPCs; [4]) [%]	viability at 10 µM (expanded OPCs; [5]) [%]	viability at 0.1 µM (expanded OPCs; [8]) [%]	viability at 1 µM (expanded OPCs; [9]) [%]	viability at 10 µM (expanded OPCs; [10]) [%]	activation at 2 µM [1, 11] [%]	activation at 10 µM [1, 15] [%]	0.1 µM (% DMSO) (expanded OPCs)	1 µM (% DMSO) (expanded OPCs)	10 µM (% DMSO) (expanded OPCs)	other results
COCCOC(=O)C1=C(C)NC(C)=C(C(=O)OC(C)C)C1c1cccc([N+](=O)[O-])c1 (stereo not shown) [Nimodipine]	4.8	88	87.4	54.5									activation at 0.4 µM ([1]; Rattus norvegicus, test compound at 0.4 uM, NCC library screen, relative to quetiapine, read-out: 0.4 uM (% Quet)): -13.1%
COC(=O)C1=C(C)NC(C)=C(C(=O)OCC(C)C)C1c1ccccc1[N+](=O)[O-] (stereo not shown) [Nisoldipine]					94.2	11.9	11.4						activation at 0.08 µM [1, 6]: -23.7%; activation at 0.4 µM [1, 7]: -133%
CN(C)CCCC1(c2ccc(F)cc2)OCc2cc(C#N)ccc21 (stereo not shown) [Nitalapram, reference compound]	37.5	95.9	94.9	91.9	85.9	101	110	33	38.6	107.3	108.9	99.4	activation at 10 µM [1, 12]: 46.5%; activation at 2 µM [1, 13]: 30.4%; activation at 10 µM [1, 14]: 6.5%; EC50 ([1]; Rattus norvegicus, average EC50 for induction of OL differentiation from independent biological replicates, eight concentrations): 1.1 µM; hit in OL differentiation assay, MRF-TMC ([1]; ● = confirmed hit in this paper's assay): ●
CC(=O)Oc1ccccc1C(=O)Nc1ncc([N+](=O)[O-])s1 [Nitazoxanide]		91	96.5	55.7				-75.9					
O=C1CN=C(c2ccccc2)c2cc([N+](=O)[O-])ccc2N1 [Nitrazepam]					84.2	88.9	95	7.3					activation at 10 µM [1, 12]: -25.3%
CCOC(=O)C1=C(C)NC(C)=C(C(=O)OC)C1c1cccc([N+](=O)[O-])c1 (stereo not shown) [Nitrendipine]					104	90.7	35.6	-27					activation at 0.4 µM [1, 7]: -4.7%
O=C1CN(/N=C/c2ccc([N+](=O)[O-])o2)C(=O)N1 [Nitrofurantoin]	-26.2								-72.2	101.2	101.9	87.2	
CNC(=C[N+](=O)[O-])NCCSCc1csc(CN(C)C)n1 [Nizatidine]					92.6	89	96.6	-1.7					activation at 10 µM [1, 12]: 13%
COc1ccc(-c2cc(=O)c3c(OC)c(OC)c(OC)c(OC)c3o2)cc1OC [Nobiletin]					76.3	28.1	28.1						activation at 0.08 µM [1, 6]: 8.4%; activation at 0.4 µM [1, 7]: -28.4%
NC[C@H](O)c1ccc(O)c(O)c1 [Norepinephrine]										99.4	99.0	68.5	activation at 2 µM [1, 13]: -1.9%; activation at 10 µM [1, 14]: -78%
C#C[C@]1(O)CC[C@H]2[C@@H]3CCC4=CC(=O)CC[C@@H]4[C@H]3CC[C@@]21C [Norethindrone]	-0.9	95	87.2	80.6					-32				
C#C[C@]1(OC(C)=O)CC[C@H]2[C@@H]3CCC4=CC(=O)CC[C@@H]4[C@H]3CC[C@@]21C [Norethisterone acetate]	-15	103	93.1	101					-14.3				
CCn1cc(C(=O)O)c(=O)c2cc(F)c(N3CCNCC3)cc21 [Norfloxacin]	-20.2								-13	111.0	105.5	99.0	
